14 compounds from patent US7687507B2, “Pyrrolo[2,3-d]pyrimidine compounds” (Pfizer Inc., priority 1998, dated 2010) can be followed below.

The compound `CCN(Cc1ccccc1)c1ncnc2[nH]ccc12` [Example 2, Benzyl-ethyl-(7H-pyrrolo[2,3-d]pyrimidin-4-yl)-amine] yielded a melting point of 170 to 172 °C.

With `C=CCN(c1ncnc2[nH]ccc12)C1CCCC1` [Example 6, Allyl-cyclopentyl-(7H-pyrrolo[2,3-d]pyrimidin-4-yl)-amine], the melting point was in the range of 173 to 175 °C.

In turn, `CCN(c1ncnc2[nH]ccc12)C1CCCCCC1` [Example 14, Cycloheptyl-ethyl-(7H-pyrrolo[2,3-d]pyrimidin-4-yl)-amine] registered a melting point of 168 to 169 °C.

`CCN(c1ncnc2[nH]ccc12)C1CCCCCCC1` [Example 15, Cyclooctyl-ethyl-(7H-pyrrolo[2,3-d]pyrimidin-4-yl)-amine] returned a melting point of 155 to 156 °C.

Take `CCC(C)N(C)c1ncnc2[nH]ccc12` (centres unmarked) [Example 26, sec-Butyl-methyl-(7H-pyrrolo[2,3-d]pyrimidin-4-yl)-amine]: the melting point lay in the range of 146 to 148 °C.

On to `Cc1cc2c(N(C)C3CCCCC3)ncnc2[nH]1` [Example 87, Cyclohexyl-methyl-(6-methyl-7H-pyrrolo[2,3-d]pyrimidin-4-yl)-amine], for which the melting point was 221 °C (dec.).

Turning to `c1nc(SC2CCCCC2)c2cc[nH]c2n1` [Example 90, 4-Cyclohexylsulfanyl-7H-pyrrolo[2,3-d]pyrimidine], the melting point lay in the range of 162 to 163 °C.

The compound `Clc1c[nH]c2ncnc(N3CCCCC3)c12` [Example 91, 5-Chloro-4-piperidin-1-yl-7H-pyrrolo[2,3-d]pyrimidine] came in with a melting point of 170 to 172 °C.

The compound `CN(c1ncnc2[nH]cc(Cl)c12)C1CCCCCC1` [Example 93, (5-Chloro-7H-pyrrolo[2,3-d]pyrimidin-4-yl)-cycloheptyl-methyl-amine] returned a melting point of 152 to 153 °C.

In turn, `CN(c1ncnc2[nH]cc(Cl)c12)C1CCCCCCC1` [Example 94, (5-Chloro-7H-pyrrolo[2,3-d]pyrimidin-4-yl)-cyclooctyl-methyl-amine] had a melting point of 151 to 153 °C.

`CN(c1ncnc2[nH]cc(-c3ccccc3)c12)C1CCCCC1` [Example 96, Cyclohexyl-methyl-(5-phenyl-7H-pyrrolo[2,3-d]pyrimidin-4-yl)amine] returned a melting point of 200 °C.

Regarding `CN(c1ncnc2[nH]cc(-c3ccc(F)cc3)c12)C1CCCCC1` [Example 97, Cyclohexyl-[5-(4-fluoro-Phenyl)-7H-pyrrolo[2,3-d]pyrimidin-4-yl]-methyl-amine], the melting point was 220 °C.

Turning to `N#Cc1c[nH]c2ncnc(N3CCCCC3)c12` [Example 100, 4-Piperidin-1-yl-7H-pyrrolo[2,3-d]pyrimidine-5-carbonitrile], the melting point was 209 to 211 °C.

Consider `C#Cc1c[nH]c2ncnc(N3CCCCC3)c12` [Example 101, 5-Ethynyl-4-piperidin-1-yl-7H-pyrrolo[2,3-d]pyrimidine], for which the melting point was 179 to 181 °C.

What is called melting point is the temperature of the solid-liquid transition.
